Data: US20220315554A1, “COMPOUNDS COMPRISING A […] LIGAND AND USE THEREOF” (priority 2019, published 2022)
Numbered stars: 1 amine (or outer) side, 2 acyl side, 3 side chain; on linkers, the order of the positions; unused ones are H or OH. Bridge positions count the residues as written; N and C are the ends. Square brackets hold non-standard residues; d marks the D form. Peptide text beside a SMILES is read from it. * marks the point of attachment. X1 = O=C(O)CN1CCN(CC(=O)O)CCN(CC(=O)N2CCN(Cc3cc(C[*:1])cc(C[*:2])c3)CC2)CCN(CC(=O)O)CC1; X35 = O=C(O)CN(CCN(CCN(CC(=O)O)CC(=O)O)CC(=O)NCCCOCCOCCOCCCN*)CC(=O)O; γGlu = O=C(O)[C@H](CCC(=O)[*:2])N[*:1]; mXylylene = c1cc(C[*:1])cc(C[*:2])c1; X41 = NCCCCCC(=O)NCCCOCCOCCOCCCN*; Suc = O=C(CCC(=O)[*:2])[*:1]; X18 = NCCNCC(CNCCN)C(=O)*; Nle = CCCC[C@H](N)C(=O)O; AEEA = NCCOCCOCC(=O)O

What was measured:
Human recombinant FAP = target: T1, Human recombinant FAP (Homo sapiens, UniProt Q12884); test: FRET-based FAP protease activity assay; type: biochemical; set-up: purchased R&D systems 3715-SE; settings: pIC50 Category (Activity), FRET substrate, 37° C.
T1 sequence (Q12884 1-760): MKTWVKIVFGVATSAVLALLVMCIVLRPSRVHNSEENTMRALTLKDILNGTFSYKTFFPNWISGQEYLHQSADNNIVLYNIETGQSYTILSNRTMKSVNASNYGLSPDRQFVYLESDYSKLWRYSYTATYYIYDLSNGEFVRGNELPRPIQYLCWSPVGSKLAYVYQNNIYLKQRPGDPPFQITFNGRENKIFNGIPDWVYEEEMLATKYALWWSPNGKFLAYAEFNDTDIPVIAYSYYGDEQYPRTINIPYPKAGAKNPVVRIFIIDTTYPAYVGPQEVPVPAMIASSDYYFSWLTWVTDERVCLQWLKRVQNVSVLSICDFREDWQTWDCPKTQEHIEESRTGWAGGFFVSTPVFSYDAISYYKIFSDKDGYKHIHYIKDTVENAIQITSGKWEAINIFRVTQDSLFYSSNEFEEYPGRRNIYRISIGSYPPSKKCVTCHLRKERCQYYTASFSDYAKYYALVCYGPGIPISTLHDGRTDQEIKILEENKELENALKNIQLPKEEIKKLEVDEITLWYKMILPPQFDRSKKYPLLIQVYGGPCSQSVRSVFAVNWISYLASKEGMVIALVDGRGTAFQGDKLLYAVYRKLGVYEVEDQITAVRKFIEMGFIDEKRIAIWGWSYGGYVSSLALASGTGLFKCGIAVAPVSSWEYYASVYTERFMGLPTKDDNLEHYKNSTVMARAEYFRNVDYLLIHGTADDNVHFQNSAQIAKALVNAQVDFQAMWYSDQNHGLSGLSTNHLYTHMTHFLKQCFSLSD

[1] = target: T2, FAP-expressing human WI-38 fibroblasts (Homo sapiens, UniProt Q12884); test: Competitive FACS binding assay; settings: pIC50 Category (FACS), competition with 3 nM Cy5-labeled compound, 4° C., 1 hour
T2 construct: FAP-expressing human WI-38 fibroblasts (ECACC) were cultured in EMEM; host or cells: WI-38 human fibroblasts
T2 sequence (Q12884 1-760): T1 sequence (Q12884 1-760)
Description: Cells were analyzed in an Attune NxT flow cytometer. […]

C[C@@H](O)[C@@H]1NC(=O)[C@@H]2CCCN2C(=O)[C@@H]2CCCN2C(=O)[C@@H](NC(=O)[C@H](CCCCNC(N)=O)NC(=O)CCC(=O)NCCCOCCOCCOCCCNC(=O)CN2CCN(CC(=O)O)CCN(CC(=O)O)CCN(CC(=O)O)CC2)CSCc2cccc(c2)CSC[C@@H](C(=O)NCCC(=O)O)NC(=O)[C@H](Cc2ccccc2)NC(=O)[C@H](CCC(N)=O)NC1=O [3BP-3399, DOTA-Ttds-Hci-[Cys(3MeBn)-Pro-Pro-Thr-Gln-Phe-Cys]-Bal-OH]
IC50 (Human recombinant FAP; recombinant human FAP): > 1000 nM
IC50 ([1]; WI-38 fibroblasts): > 1000 nM

CCCC[C@H](NC(=O)CCC(=O)NCCCOCCOCCOCCCNC(=O)CCCCCN)C(=O)N[C@H]1CSCc2cc(cc(CN3CCN(C(=O)CN4CCN(CC(=O)O)CCN(CC(=O)O)CCN(CC(=O)O)CC4)CC3)c2)CSC[C@@H](C(=O)N[C@@H](CC(=O)O)C(N)=O)NC(=O)[C@H](Cc2ccccc2)NC(=O)[C@H](CCC(N)=O)NC(=O)[C@H]([C@@H](C)O)NC(=O)[C@@H]2CCCN2C(=O)[C@@H]2CCCN2C1=O [3BP-4004, H-Ahx-Ttds-Nle-[Cys-(tMeBn(DOTA-PP))-Pro-Pro-Thr-Gln-Phe-Cys]-Asp-NH2] ({X41-Suc}-[Nle]CPPTQFCD-NH2; linker 2-8 via X1)
IC50 (Human recombinant FAP): < 10 nM
IC50 [1]: 10 to 79.4 nM

CCCC[C@H](NC(=O)CCC(=O)NCCCOCCOCCOCCCNC(=O)CN(CCN(CC(=O)O)CC(=O)O)CCN(CC(=O)O)CC(=O)O)C(=O)N[C@H]1CSCc2cccc(c2)CSC[C@@H](C(=O)O)NC(=O)[C@H](Cc2ccccc2)NC(=O)[C@H](CCC(=O)O)NC(=O)[C@H]([C@@H](C)O)NC(=O)[C@@H]2CCCN2C(=O)[C@@H]2CCCN2C1=O [3BP-4229, DTPA-Ttds-Nle-[Cys-(3MeBn)-Pro-Pro-Thr-Glu-Phe-Cys]-OH] ({X35-Suc}-[Nle]CPPTEFC-OH; linker 2-8 via mXylylene)
IC50 (Human recombinant FAP): 10 to 79.4 nM
IC50 [1]: 100 to 794 nM

CCCC[C@H](NC(=O)COCCOCCNC(=O)C(CNCCN)CNCCN)C(=O)N[C@H]1CSCc2cccc(c2)CSC[C@@H](C(=O)O)NC(=O)[C@H](Cc2ccccc2)NC(=O)[C@H](CCC(=O)O)NC(=O)[C@H]([C@@H](C)O)NC(=O)[C@@H]2CCCN2C(=O)[C@@H]2CCCN2C1=O [3BP-4228, N4Ac-O2O-Nle-[Cys-(3MeBn)-Pro-Pro-Thr-Glu-Phe-Cys]-OH] ({X18-AEEA}-[Nle]CPPTEFC-OH; linker 2-8 via mXylylene)
IC50 (Human recombinant FAP): 100 to 794 nM
IC50 [1]: > 1000 nM

CCCC[C@H](NC(=O)CC[C@H](NC(=O)C(CNCCN)CNCCN)C(=O)O)C(=O)N[C@H]1CSCc2cccc(c2)CSC[C@@H](C(=O)O)NC(=O)[C@H](Cc2ccccc2)NC(=O)[C@H](CCC(=O)O)NC(=O)[C@H]([C@@H](C)O)NC(=O)[C@@H]2CCCN2C(=O)[C@@H]2CCCN2C1=O [3BP-4230, N4Ac-gGlu-Nle-[Cys-(3MeBn)-Pro-Pro-Thr-Glu-Phe-Cys]-OH] ({X18-γGlu}-[Nle]CPPTEFC-OH; linker 2-8 via mXylylene)
IC50 (Human recombinant FAP): > 1000 nM
IC50 [1]: > 1000 nM

CCCCCC(=O)N[C@H]1CSCc2cc(CSCCNC(=O)CCCCC3(N(C)CC(=O)O)CN(CC(=O)O)CCN(CC(=O)O)C3)cc(c2)CSC[C@@H](C(=O)O)NC(=O)[C@H](Cc2ccccc2)NC(=O)[C@H](CCC(N)=O)NC(=O)[C@H]([C@@H](C)O)NC(=O)[C@@H]2CCCN2C(=O)[C@@H]2CCCN2C1=O [3BP-4382, Hex-[Cys-(tMeBn(DATA-AET))-Pro-Pro-Thr-Gln-Phe-Cys]-OH]
IC50 (Human recombinant FAP): 10 to 79.4 nM
IC50 [1]: 10 to 79.4 nM

CCCCCC(=O)N[C@H]1CSCc2cc(CSCCNC(=O)CCc3ccc(O)c(CN(CCN(CC(=O)O)Cc4cc(CCC(=O)O)ccc4O)CC(=O)O)c3)cc(c2)CSC[C@@H](C(=O)O)NC(=O)[C@H](Cc2ccccc2)NC(=O)[C@H](CCC(N)=O)NC(=O)[C@H]([C@@H](C)O)NC(=O)[C@@H]2CCCN2C(=O)[C@@H]2CCCN2C1=O [3BP-4381, Hex-[Cys-(tMeBn(HBED-AET))-Pro-Pro-Thr-Gln-Phe-Cys]-OH]
IC50 (Human recombinant FAP): 10 to 79.4 nM
IC50 [1]: 10 to 79.4 nM

CCCCCC(=O)N[C@H]1CSCc2cc(CSCCNC(=O)COCCOCCNC(=O)CN(CCN(CC(=O)O)CC(=O)O)CCN(CC(=O)O)CC(=O)O)cc(c2)CSC[C@@H](C(=O)O)NC(=O)[C@H](Cc2ccccc2)NC(=O)[C@H](CCC(N)=O)NC(=O)[C@H]([C@@H](C)O)NC(=O)[C@@H]2CCCN2C(=O)[C@@H]2CCCN2C1=O [3BP-4224, Hex-[Cys-(tMeBn(DTPA-O2Oc-AET))-Pro-Pro-Thr-Gln-Phe-Cys]-OH]
IC50 (Human recombinant FAP): 10 to 79.4 nM
IC50 [1]: 10 to 79.4 nM
